ChEMBL document CHEMBL5126614 (ACS Med Chem Lett, 2022)

Legend:
[1] = molecular target: Glucagon-like peptide 1 receptor (Homo sapiens, UniProt P43220); assay: Agonist activity at human GLP1R expressed in frozen cells assessed as increase in cAMP production measured after 1 hr by HitHunter luminescence assay; type: functional, cell-based
[2] = Agonist activity at rhesus monkey GLP1R; design: species or system Macaca mulatta
Glucagon receptor = Glucagon receptor (Homo sapiens, UniProt P47871); assay: Agonist activity at human GCGR expressed in frozen cells assessed as increase in cAMP production measured after 1 hr by HitHunter luminescence assay; type: functional, cell-based
Sequence of Glucagon receptor (P47871 whole entry): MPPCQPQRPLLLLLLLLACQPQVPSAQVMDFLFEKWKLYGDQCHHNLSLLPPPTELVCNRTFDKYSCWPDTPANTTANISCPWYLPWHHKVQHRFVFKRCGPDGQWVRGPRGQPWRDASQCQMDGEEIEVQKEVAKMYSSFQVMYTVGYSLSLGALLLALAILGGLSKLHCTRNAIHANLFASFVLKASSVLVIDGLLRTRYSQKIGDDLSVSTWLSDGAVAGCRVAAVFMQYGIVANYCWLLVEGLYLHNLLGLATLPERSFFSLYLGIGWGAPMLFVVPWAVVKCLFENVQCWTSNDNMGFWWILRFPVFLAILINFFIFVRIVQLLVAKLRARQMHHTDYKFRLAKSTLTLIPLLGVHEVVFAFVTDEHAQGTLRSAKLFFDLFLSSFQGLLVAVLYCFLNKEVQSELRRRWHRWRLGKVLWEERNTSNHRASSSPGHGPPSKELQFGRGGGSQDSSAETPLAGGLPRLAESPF

[3] = Agonist activity at rhesus monkey GCGR; design: species or system Macaca mulatta
Homo sapiens = organism: Homo sapiens; assay: Selectivity ratio of EC50 for human GCGR expressed in frozen cells to EC50 for human GLP1R expressed in frozen cells; type: cell-based
Macaca mulatta = organism: Macaca mulatta; assay: Selectivity ratio of EC50 for rhesus monkey GCGR to EC50 for rhesus monkey GLP1R

Sequence of Glucagon-like peptide 1 receptor (P43220 whole entry): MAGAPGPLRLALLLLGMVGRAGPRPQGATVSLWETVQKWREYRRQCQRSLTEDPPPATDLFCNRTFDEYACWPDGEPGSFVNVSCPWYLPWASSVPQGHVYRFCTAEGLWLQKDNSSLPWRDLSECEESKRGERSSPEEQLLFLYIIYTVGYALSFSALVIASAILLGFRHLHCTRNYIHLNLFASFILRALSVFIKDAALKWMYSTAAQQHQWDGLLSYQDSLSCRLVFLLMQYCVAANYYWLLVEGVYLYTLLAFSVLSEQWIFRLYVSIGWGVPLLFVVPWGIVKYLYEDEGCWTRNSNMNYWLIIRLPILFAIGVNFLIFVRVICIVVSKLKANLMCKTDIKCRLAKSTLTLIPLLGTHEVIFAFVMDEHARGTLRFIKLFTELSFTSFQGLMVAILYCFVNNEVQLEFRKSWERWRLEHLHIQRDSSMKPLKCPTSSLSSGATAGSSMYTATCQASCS

EC50 [1] | EC50 [2] | EC50 (Glucagon receptor) | EC50 [3] | Ratio EC50 (Macaca mulatta) | Structure (SMILES) | Ratio EC50 (Homo sapiens)
0.022 nM | 0.007 nM | 0.048 nM | 0.064 nM | 9.1 | CCCCCCCCCCCCCCCC(=O)N[C@@H](CCC(=O)N[C@@H](CCC(=O)NCCCC[C@H](NC(=O)[C@H](CC(=O)O)NC(=O)[C@H](CO)NC(=O)[C@@H](NC(=O)[C@H](Cc1ccccc1)NC(=O)[C@@H](NC(=O)CNC(=O)[C@H](CCC(N)=O)NC(=O)C(C)(C)NC(=O)[C@@H](N)Cc1cnc[nH]1)[C@@H](C)O)[C@@H](C)O)C(=O)N[C@@H](CO)C(=O)N[C@@H](CCCCN)C(=O)N[C@@H](Cc1ccc(O)cc1)C(=O)N[C@@H](CC(C)C)C(=O)N[C@@H](CC(=O)O)C(=O)NC(C)(C)C(=O)N[C@@H](CCCNC(=N)N)C(=O)N[C@@H](C)C(=O)N[C@@H](C)C(=O)N[C@@H](CCC(N)=O)C(=O)N[C@@H](CC(=O)O)C(=O)N[C@@H](Cc1ccccc1)C(=O)N[C@H](C(=O)N[C@@H](CCC(N)=O)C(=O)N[C@@H](Cc1c[nH]c2ccccc12)C(=O)N[C@@H](CC(C)C)C(=O)N[C@@H](CCSC)C(=O)N[C@@H](CC(=O)O)C(=O)N[C@H](C(=O)N[C@@H](CCCCNC(=O)CC[C@H](N)C(=O)O)C(N)=O)[C@@H](C)O)C(C)C)C(=O)O)C(=O)O | 2.1
0.029 nM | 0.14 nM | 0.058 nM | 0.334 nM | 2.4 | CCCCCCCCCCCCCCCC(=O)N[C@@H](CCC(=O)N[C@@H](CCC(=O)NCCCC[C@H](NC(=O)[C@H](CC(=O)O)NC(=O)[C@H](CO)NC(=O)[C@@H](NC(=O)[C@H](Cc1ccccc1)NC(=O)[C@@H](NC(=O)CNC(=O)[C@H](CCC(N)=O)NC(=O)C(C)(C)NC(=O)[C@@H](N)Cc1cnc[nH]1)[C@@H](C)O)[C@@H](C)O)C(=O)N[C@@H](CO)C(=O)N[C@@H](CCCCN)C(=O)N[C@@H](Cc1ccc(O)cc1)C(=O)N[C@@H](CC(C)C)C(=O)N[C@@H](CC(=O)O)C(=O)NC(C)(C)C(=O)N[C@@H](CCCNC(=N)N)C(=O)N[C@@H](C)C(=O)N[C@@H](C)C(=O)N[C@@H](CCC(N)=O)C(=O)N[C@@H](CC(=O)O)C(=O)N[C@@H](Cc1ccccc1)C(=O)N[C@H](C(=O)N[C@@H](CCC(N)=O)C(=O)N[C@@H](Cc1c[nH]c2ccccc12)C(=O)N[C@@H](CC(C)C)C(=O)N[C@@H](CC(C)C)C(=O)N[C@@H](CC(N)=O)C(=O)N[C@H](C(=O)N[C@@H](CCCCNC(=O)CC[C@H](N)C(=O)O)C(N)=O)[C@@H](C)O)C(C)C)C(=O)O)C(=O)O | 2
